Assays:
[1] = test system: α-smooth muscle actin (αSMA) positive LL29 cells; experiment: Inhibition of fibrotic process: αSMA in TGF-β1 treated primary human fibroblasts from IPF patients; type: cell-based; details: Homo sapiens, Fibroblast, 96 h; Table 8; LL29 fibroblasts from IPF patients, TGF-β1 20 ng/mL, 4 days; dose-response 10 μM to 0.94 nM;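 also: controls were TGF-β1 stimulated wells with DMSO vehicle (positive) and cells given DMSO alone (negative), cultured in F12 medium with 1% fetal bovine serum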
[2] = test system: Tau phosphorylation at Ser396 (pSer396); experiment: Tau phosphorylation assay (pSer396 ELISA / western blot) in SH-SY5Y cells; type: cell-based, human; details: Homo sapiens; SH-SY5Y cells, overnight (16-18 h) exposure; read-out: pSer396 Tau EC50;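 also: EC50 for reduction of Tau pSer396 in lysed cells, measured by colorimetric ELISA or chemiluminescent western blot, both using the same pSer396 antibody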
Protocol: Two days before treatment, cells were seeded onto 96 well plates at 5×10^4 cells/well.
Wells were visually checked for cell death or change in morphology and supernatants were tested for cytotoxicity by measurement of lactate dehydrogenase release (LDH, CytoToxOne kit, Promega) if necessary.
Cells were lysed with RIPA buffer complemented with phosphatase and protease inhibitors then lysates were spun down at 12,000 g for 10 min to remove any cellular debris. Lysates are then either directly tested for pSer396 by ELISA (Life Technology, Kit KHB7031) or loaded on NuPage Bis-Tris gels for western blot analysis. Colorimetric detection of ELISA signal is performed by Cytation3 plate reader (Biotek) and the chemiluminescence signal for HRP-linked antibodies used in western blotting is detected using a Carestream Image Station. The same pSer396 antibody is used for detection of pTau in both assays.

IL-6 = IL-6 inhibition in LPS-stimulated human peripheral blood mononuclear cells (HTRF); type: cell-based; details: Homo sapiens, PBMC; for inhibition at 10 µM: read-out: percent value in parentheses beside EC50 >10 μM; for EC50: Table 9, huPBMCs, LPS 50 ng/mL, 22 hours, dose-response starting from 10 μM;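 as to all read-outs here: IL-6 detected by HTRF with an XL665- and Cryptate-labelled anti-IL-6 antibody pair, samples run in duplicate, EC50 obtained from a four-parameter Levenberg-Marquardt curve fit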
Protocol: After 22 hour incubation, a mixture of anti-IL6 XL665 and anti-IL-6 Cryptate diluted in reconstitution buffer (Catalog #62IL6PEC, Cisbio Inc., Bedford, Mass.) was added to each well. […] All samples were processed in duplicate. […] EC50 was determined using software generated by Dotmatics Limited (Windhill Bishops Stortford Herts, UK) using the Levenberg-Marquardt 4 parameter fitting procedure with finite different gradients.

[3] = test system: SW480 colon carcinoma cells; experiment: Cell viability assay (CellTiter-Glo); type: cell-based, human; details: Homo sapiens; for EC50: 96 h, SW480 cells, CellTiter-Glo, four days incubation; for inhibition at 10 µM: SW480, read-out: percent inhibition at 10 μM
recombinant GSK3β kinase = recombinant GSK3β kinase (Homo sapiens (Human), UniProt P49841); experiment: GSK3β kinase assay (Ser/Thr 09 peptide Z-lyte FRET); type: biochemical; details: 46 μM ATP, 1 h room temperature;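 also: kinase activity read as coumarin to fluorescein emission ratio, 11-point threefold dilutions from 10 µM to 0.0003 µM in duplicate, unphosphorylated and phosphorylated peptide as 0% and 100% controls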
recombinant GSK3β kinase, sequence (P49841 whole entry): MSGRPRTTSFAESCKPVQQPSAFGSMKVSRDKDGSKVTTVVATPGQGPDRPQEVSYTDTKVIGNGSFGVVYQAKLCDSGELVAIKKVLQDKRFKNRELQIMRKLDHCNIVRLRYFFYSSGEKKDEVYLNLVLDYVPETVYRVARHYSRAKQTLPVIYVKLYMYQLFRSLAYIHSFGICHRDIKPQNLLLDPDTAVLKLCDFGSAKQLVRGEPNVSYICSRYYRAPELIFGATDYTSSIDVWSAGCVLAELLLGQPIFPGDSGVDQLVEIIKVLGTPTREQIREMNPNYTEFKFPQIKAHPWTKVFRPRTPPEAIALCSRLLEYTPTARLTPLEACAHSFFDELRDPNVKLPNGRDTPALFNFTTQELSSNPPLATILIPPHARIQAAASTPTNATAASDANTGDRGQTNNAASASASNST

[4] = target: recombinant DYRK1A kinase (Homo sapiens (Human), UniProt Q13627); experiment: DYRK1A kinase assay (Ser/Thr 18 peptide Z-lyte FRET); type: biochemical; details: 30 μM ATP, 1 h room temperature;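 also: Read-out is the coumarin to fluorescein emission ratio, referenced to unphosphorylated (0%) and phosphorylated (100%) Ser/Thr 18 peptide controls, values from dose-response curves by non-linear regression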
[5] = test system: Wnt pathway (Sp5-Luc reporter, TCF/LEF binding sites) in SW480 colon carcinoma cells; experiment: Screening assay for Wnt activity: Sp5-Luc reporter gene assay; type: cell-based, human; details: Homo sapiens; for EC50: Sp5-Luc reporter, SW480 cells, 36 to 48 hours;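 as to all read-outs here: firefly luciferase luminescence read in stably transduced SW480 cells carrying the Sp5 promoter reporter with eight TCF/LEF sites, compounds given in 0.1% DMSO final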
Protocol: The screening assay for Wnt activity is described as follows.
Following incubation, 15 μl of BriteLite Plus luminescence reagent (Perkin Elmer) was added to each well of the 384-well assay plates. The plates were placed on an orbital shaker for 2 min and then luminescence was quantified using the Envision (Perkin Elmer) plate reader.

Row | SMILES | EC50 [1] [nM] | EC50 [2] [nM] | inhibition at 10 µM (IL-6) [%] | EC50 (IL-6) [nM] | EC50 [3] [nM] | EC50 (recombinant GSK3β kinase) [nM] | EC50 [4] [nM] | EC50 [5] [nM] | inhibition at 10 µM [3] [%] | inhibition at 10 µM ([5]; SW480, read-out: percent inhibition at 10 μM) [%]
1 | O=C(Nc1cc2cc(-c3cnc4n3CCNC4)ccc2cn1)C1CCN(CC2(C(F)(F)F)CC2)CC1 [Compound 990, N-(6-(5,6,7,8-Tetrahydroimidazo[1,2-a]pyrazin-3-yl)isoquinolin-3-yl)-1-((1-(trifluoromethyl)cyclopropyl)methyl)piperidine-4-carboxamide] | 782 | 1800 | 0 | > 10000 | 3550 | 100 | 21.3 | 2860 | – | –
2 | O=C(Nc1cc2cc(-c3cnc4n3CCNC4)ccc2cn1)C1CCN(C(=O)c2ccccc2)CC1 [Compound 991, 1-Benzoyl-N-(6-(5,6,7,8-tetrahydroimidazo[1,2-a]pyrazin-3-yl)isoquinolin-3-yl)piperidine-4-carboxamide] | 2680 | 10000 | – | 3240 | 3960 | 29 | 3.3 | 1700 | – | –
3 | Cn1ncc(-c2ccc3cnc(NC(=O)C4CC5(C4)CN(C(=O)OC(C)(C)C)C5)cc3c2)c1CN1CCCCC1 [Compound 992, tert-Butyl 6-((6-(1-methyl-5-(piperidin-1-ylmethyl)-1H-pyrazol-4-yl)isoquinolin-3-yl)carbamoyl)-2-azaspiro[3.3]heptane-2-carboxylate] | 2970 | 350 | 2.6 | > 10000 | 5600 | 14 | 25.3 | 3210 | – | –
4 | Cc1ncc(-c2ccc3cnc(NC(=O)CN4CCCC4)cc3c2)s1 [Compound 993, N-(6-(2-Methylthiazol-5-yl)isoquinolin-3-yl)-2-(pyrrolidin-1-yl)acetamide] | 1490 | 702 | – | 8840 | 6580 | 87 | 14.7 | 7970 | – | –
5 | Cc1ncc(-c2ccc3cnc(NC(=O)CN4CCOCC4)cc3c2)s1 [Compound 994, N-(6-(2-Methylthiazol-5-yl)isoquinolin-3-yl)-2-morpholinoacetamide] | 567 | 1900 | 31.8 | > 10000 | > 10000 | 110 | 12.9 | 7900 | 36.8 | –
6 | Cc1ncc(-c2ccc3cnc(NC(=O)CN4CCN(C)CC4)cc3c2)s1 [Compound 995, 2-(4-Methylpiperazin-1-yl)-N-(6-(2-methylthiazol-5-yl)isoquinolin-3-yl) acetamide] | 1250 | 2400 | – | 8930 | > 10000 | 177 | 13.3 | > 10000 | 47.6 | 43.8
7 | Cc1ncc(-c2ccc3cnc(NC(=O)CN4C[C@H]5C[C@@H]4CO5)cc3c2)s1 [Compound 996, 2-((1R,4R)-2-Oxa-5-azabicyclo[2.2.1]heptan-5-yl)-N-(6-(2-methylthiazol-5-yl)isoquinolin-3-yl)acetamide] | 1200 | 3100 | 10.6 | > 10000 | > 10000 | 141 | 13.4 | 4390 | 32.2 | –
8 | O=C(Nc1cc2cc(-c3cnn4c3CNCC4)ccc2cn1)C1CCN(CC2(C(F)(F)F)CC2)CC1 [Compound 997, N-(6-(4,5,6,7-Tetrahydropyrazolo[1,5-a]pyrazin-3-yl)isoquinolin-3-yl)-1-((1-(trifluoromethyl)cyclopropyl)methyl)piperidine-4-carboxamide] | 567 | 1300 | 28.6 | > 10000 | 5060 | 33 | 186 | 3890 | – | –
9 | O=C(Nc1cc2cc(-c3cnn4c3CN(CCF)CC4)ccc2cn1)C1CCN(CC2(C(F)(F)F)CC2)CC1 [Compound 998, N-(6-(5-(2-Fluoroethyl)-4,5,6,7-tetrahydropyrazolo[1,5-a]pyrazin-3-yl)isoquinolin-3-yl)-1-((1-(trifluoromethyl)cyclopropyl)methyl)piperidine-4-carboxamide] | 260 | 638 | – | 7080 | 4750 | 102 | 6.2 | 2250 | – | –
